Patent US8722849B2, “Polypeptides” (Novo Nordisk A/S, priority 2011, dated 2014)
Starred links: 1 amine or outer side, 2 acyl side, 3 side chain; linkers in the order of their positions; H or OH if unused. Positions of bridges follow the written chain, without caps; N, C: chain ends. Residues, ends and D or L forms follow the SMILES beside them. *: point of attachment. C20 diacid = O=C(O)CCCCCCCCCCCCCCCCCCC(=O)*; C18 diacid = O=C(O)CCCCCCCCCCCCCCCCC(=O)*; γGlu = O=C(O)[C@H](CCC(=O)[*:2])N[*:1]

How the values were obtained:
Format in all cases: cell-based
[1] = target: T1, human calcitonin receptor (Homo sapiens, UniProt P30988); experiment: Assay (II)a functional CRE-luciferase assay, human calcitonin receptor; details: Table 7; human calcitonin (CTa) receptor
T1 construct: expressed in transfected cells; host or cells: BHK570
T1 sequence (P30988 25-474): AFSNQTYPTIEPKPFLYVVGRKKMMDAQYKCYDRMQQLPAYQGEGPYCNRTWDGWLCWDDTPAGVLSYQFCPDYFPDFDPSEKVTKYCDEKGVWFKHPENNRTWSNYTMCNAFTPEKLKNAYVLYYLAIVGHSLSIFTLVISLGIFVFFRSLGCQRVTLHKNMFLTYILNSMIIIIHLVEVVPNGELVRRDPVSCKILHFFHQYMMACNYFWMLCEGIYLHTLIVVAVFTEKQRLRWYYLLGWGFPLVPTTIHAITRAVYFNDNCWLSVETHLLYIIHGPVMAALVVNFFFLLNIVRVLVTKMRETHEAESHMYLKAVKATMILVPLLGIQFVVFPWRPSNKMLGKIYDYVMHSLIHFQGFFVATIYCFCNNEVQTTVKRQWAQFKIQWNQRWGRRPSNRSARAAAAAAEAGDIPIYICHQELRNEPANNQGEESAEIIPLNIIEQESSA

[2] = target: T2, rat amylin 3(a) receptor (rat calcitonin(a) receptor + rat RAMP3) (Rattus norvegicus, UniProt P32214+Q9JJ73); experiment: Assay (II)b functional cAMP FlashPlate assay, rat amylin receptor; details: Table 11
T2 construct: expressed in transfected cells; host or cells: BHK tk'ts 13
T2 sequence (P32214 25-479 isoform P32214-2 limits assumed): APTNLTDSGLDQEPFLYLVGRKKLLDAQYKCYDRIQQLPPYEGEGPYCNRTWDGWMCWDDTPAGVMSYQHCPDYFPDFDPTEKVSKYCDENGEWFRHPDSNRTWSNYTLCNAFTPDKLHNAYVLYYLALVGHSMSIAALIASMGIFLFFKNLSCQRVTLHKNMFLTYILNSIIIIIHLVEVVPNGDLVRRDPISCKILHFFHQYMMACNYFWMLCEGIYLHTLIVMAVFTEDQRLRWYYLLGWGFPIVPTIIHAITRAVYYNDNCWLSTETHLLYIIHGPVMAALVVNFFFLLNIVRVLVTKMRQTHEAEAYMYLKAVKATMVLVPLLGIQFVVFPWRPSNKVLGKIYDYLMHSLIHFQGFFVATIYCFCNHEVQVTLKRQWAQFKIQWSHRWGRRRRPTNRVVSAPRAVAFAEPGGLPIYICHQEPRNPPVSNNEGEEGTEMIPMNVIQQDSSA
T2 sequence (Q9JJ73 23-147 partner): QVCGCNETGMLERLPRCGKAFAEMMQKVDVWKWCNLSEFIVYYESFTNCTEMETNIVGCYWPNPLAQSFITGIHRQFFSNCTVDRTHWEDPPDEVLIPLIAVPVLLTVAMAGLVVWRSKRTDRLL
In short: (§1)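 BHK tk'ts 13 cells transiently transfected with rat calcitonin(a) receptor, alone or with rat RAMP3 (amylin 3(a)), were stimulated 24 hours later with sample for 30 min in buffer containing IBMX. cAMP measured by competitive radioactive FlashPlate assay, scintillation read after 3 h detection incubation.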

[3] = target: T3, rat calcitonin (a) receptor (Rattus norvegicus, UniProt P32214); experiment: Assay (II)b functional cAMP FlashPlate assay, rat calcitonin receptor; details: Table 11; read-out: CTa receptor rat EC50
T3 construct: expressed in transfected cells; host or cells: BHK tk'ts 13
T3 sequence (P32214 25-479 isoform P32214-2 limits assumed): T2 sequence (P32214 25-479 isoform P32214-2 limits assumed)
In short: as §1

SMILES	EC50 [1]	EC50 [2]	EC50 [3]
CC[C@H](C)[C@H](NC(=O)[C@@H]1CCCN1C(=O)CNC(=O)[C@H](Cc1ccccc1)NC(=O)[C@H](CC(N)=O)NC(=O)[C@H](CC(N)=O)NC(=O)[C@H](CO)NC(=O)[C@H](CO)NC(=O)[C@H](Cc1c[nH]cn1)NC(=O)[C@H](Cc1c[nH]cn1)NC(=O)[C@H](CC(C)C)NC(=O)[C@H](Cc1ccccc1)NC(=O)[C@H](CCC(=O)O)NC(=O)[C@H](C)NC(=O)[C@H](CC(C)C)NC(=O)[C@H](CCCNC(=N)N)NC(=O)[C@H](CCC(N)=O)NC(=O)[C@@H](NC(=O)[C@H](C)NC(=O)[C@@H]1CSSC[C@H](NC(=O)[C@H](CCCCN)NC(=O)[C@H](CCC(=O)O)NC(=O)CC[C@H](NC(=O)CCCCCCCCCCCCCCCCC(=O)O)C(=O)O)C(=O)N[C@@H](CC(N)=O)C(=O)N[C@@H]([C@@H](C)O)C(=O)N[C@@H](C)C(=O)N[C@@H]([C@@H](C)O)C(=O)N1)[C@@H](C)O)C(=O)N[C@@H](CC(C)C)C(=O)N1CCC[C@H]1C(=O)N1CCC[C@H]1C(=O)N[C@H](C(=O)N[C@@H](CC(N)=O)C(=O)N[C@H](C(=O)NCC(=O)N[C@@H](CO)C(=O)N[C@@H](CC(N)=O)C(=O)N[C@H](C(=O)N[C@@H](Cc1ccc(O)cc1)C(N)=O)[C@@H](C)O)C(C)C)[C@@H](C)O [Example 42, N-alpha-[(S)-4-Carboxy-4-(17-carboxyheptadecanoylamino)butyryl]-Glu-[Glu14,His17]-pramlintide] ({C18 diacid-γGlu}-EKCNTATCATQRLAEFLHHSSNNFGPILPPTNVGSNTY-NH2; disulfide 3-8 (inferred))	0.274 nM	0.135 nM	2.43 nM
CC[C@H](C)[C@H](NC(=O)[C@@H]1CCCN1C(=O)CNC(=O)[C@H](Cc1ccccc1)NC(=O)[C@H](CC(N)=O)NC(=O)[C@H](CC(N)=O)NC(=O)[C@H](CO)NC(=O)[C@H](CO)NC(=O)[C@H](Cc1c[nH]cn1)NC(=O)[C@H](Cc1c[nH]cn1)NC(=O)[C@H](CC(C)C)NC(=O)[C@H](Cc1ccccc1)NC(=O)[C@H](CCC(=O)O)NC(=O)[C@H](C)NC(=O)[C@H](CC(C)C)NC(=O)[C@H](CCCNC(=N)N)NC(=O)[C@H](CCC(N)=O)NC(=O)[C@@H](NC(=O)[C@H](C)NC(=O)[C@@H]1CSSC[C@H](NC(=O)[C@H](CCCCN)NC(=O)CC[C@H](NC(=O)CCCCCCCCCCCCCCCCCCC(=O)O)C(=O)O)C(=O)N[C@@H](CC(N)=O)C(=O)N[C@@H]([C@@H](C)O)C(=O)N[C@@H](C)C(=O)N[C@@H]([C@@H](C)O)C(=O)N1)[C@@H](C)O)C(=O)N[C@@H](CC(C)C)C(=O)N1CCC[C@H]1C(=O)N1CCC[C@H]1C(=O)N[C@H](C(=O)N[C@@H](CC(N)=O)C(=O)N[C@H](C(=O)NCC(=O)N[C@@H](CO)C(=O)N[C@@H](CC(N)=O)C(=O)N[C@H](C(=O)N[C@@H](Cc1ccc(O)cc1)C(N)=O)[C@@H](C)O)C(C)C)[C@@H](C)O [Example 27, N-alpha-[(S)-4-Carboxy-4-(19-carboxynonadecanoylamino)butyryl]-[Glu14,His17]-pramlintide] ({C20 diacid-γGlu}-KCNTATCATQRLAEFLHHSSNNFGPILPPTNVGSNTY-NH2; disulfide 2-7 (inferred))	0.107 nM	0.188 nM	0.539 nM
CC[C@H](C)[C@H](NC(=O)[C@@H]1CCCN1C(=O)CNC(=O)[C@H](Cc1ccccc1)NC(=O)[C@H](CC(N)=O)NC(=O)[C@H](CC(N)=O)NC(=O)[C@H](CO)NC(=O)[C@H](CO)NC(=O)[C@H](Cc1c[nH]cn1)NC(=O)[C@H](Cc1c[nH]cn1)NC(=O)[C@H](CC(C)C)NC(=O)[C@H](Cc1ccccc1)NC(=O)[C@H](CCC(=O)O)NC(=O)[C@H](C)NC(=O)[C@H](CC(C)C)NC(=O)[C@H](CCCNC(=N)N)NC(=O)[C@H](CCC(N)=O)NC(=O)[C@@H](NC(=O)[C@H](C)NC(=O)[C@@H]1CSSC[C@H](NC(=O)[C@H](CCCCN)NC(=O)CC[C@H](NC(=O)CCCCCCCCCCCCCCCCC(=O)O)C(=O)O)C(=O)N[C@@H](CC(N)=O)C(=O)N[C@@H]([C@@H](C)O)C(=O)N[C@@H](C)C(=O)N[C@@H]([C@@H](C)O)C(=O)N1)[C@@H](C)O)C(=O)N[C@@H](CC(C)C)C(=O)N1CCC[C@H]1C(=O)N1CCC[C@H]1C(=O)N[C@H](C(=O)N[C@@H](CC(N)=O)C(=O)N[C@H](C(=O)NCC(=O)N[C@@H](CO)C(=O)N[C@@H](Cc1c[nH]cn1)C(=O)N[C@H](C(=O)N[C@@H](Cc1ccc(O)cc1)C(N)=O)[C@@H](C)O)C(C)C)[C@@H](C)O [Example 59, N-alpha-[(S)-4-Carboxy-4-(17-carboxyheptadecanoylamino)butyryl]-[Glu14,His17,His35]-pramlintide] ({C18 diacid-γGlu}-KCNTATCATQRLAEFLHHSSNNFGPILPPTNVGSHTY-NH2; disulfide 2-7 (inferred))	0.0605 nM	0.023 nM	0.148 nM
CC[C@H](C)[C@H](NC(=O)[C@@H]1CCCN1C(=O)CNC(=O)[C@H](Cc1ccccc1)NC(=O)[C@H](CC(N)=O)NC(=O)[C@H](CC(N)=O)NC(=O)[C@H](CO)NC(=O)[C@H](CO)NC(=O)[C@H](Cc1c[nH]cn1)NC(=O)[C@H](CCCNC(=N)N)NC(=O)[C@H](CC(C)C)NC(=O)[C@H](Cc1ccccc1)NC(=O)[C@H](CCC(=O)O)NC(=O)[C@H](C)NC(=O)[C@H](CC(C)C)NC(=O)[C@H](CCCNC(=N)N)NC(=O)[C@H](CCC(N)=O)NC(=O)[C@@H](NC(=O)[C@H](C)NC(=O)[C@@H]1CSSC[C@H](NC(=O)[C@H](Cc2c[nH]cn2)NC(=O)CC[C@H](NC(=O)CCCCCCCCCCCCCCCCCCC(=O)O)C(=O)O)C(=O)N[C@@H](CC(N)=O)C(=O)N[C@@H]([C@@H](C)O)C(=O)N[C@@H](C)C(=O)N[C@@H]([C@@H](C)O)C(=O)N1)[C@@H](C)O)C(=O)N[C@@H](CC(C)C)C(=O)N1CCC[C@H]1C(=O)N1CCC[C@H]1C(=O)N[C@H](C(=O)N[C@@H](CC(N)=O)C(=O)N[C@H](C(=O)NCC(=O)N[C@@H](CO)C(=O)N[C@@H](CC(N)=O)C(=O)N[C@H](C(=O)N1CCC[C@H]1C(N)=O)[C@@H](C)O)C(C)C)[C@@H](C)O [Example 90, N-alpha-[(S)-4-Carboxy-4-(19-carboxynonadecanoylamino)butyryl]-[His1,Glu14,Arg17,Pro37]-pramlintide] ({C20 diacid-γGlu}-HCNTATCATQRLAEFLRHSSNNFGPILPPTNVGSNTP-NH2; disulfide 2-7 (inferred); C-terminus assumed)	0.0475 nM	0.217 nM	0.128 nM
